Experimental data as given in patent US9458194B2, “Compounds useful in the treatment and/or care of the skin and their cosmetic or pharmaceutical compositions” (Lubrizol Advanced Materials, Inc., priority 2013, dated 2016).
Non-standard residues stand in square brackets, D forms with d. *: point of attachment. Palmitoyl = CCCCCCCCCCCCCCCC(=O)*; Orn = NCCC[C@H](N)C(=O)O; Dap = NC[C@H](N)C(=O)O; Dbu = Diaminobutyryl; NHHex = CCCCCCN*

What was measured:
[1] = system: human LOXL1 gene promoter; assay: Luminescence assay of human LOXL1 gene promoter activation (Renilla luciferase); type: cell-based; conditions: 16-24 hours
Experimental: (§1) The effect of the compounds of the invention on the activity of the fibulin-5 and LOXL1 promoters was studied and compared to the levels of basal expression of the untreated cells (negative control) and with the effect of Interleukin-1β (IL-1β) in the same conditions.
(§2) Cells from an epithelial cell line doubly transfected with fibulin-5 and LOXL1 human promoters in which the luciferase gene is under the regulatory control of said promoters (4×10^4 cells/well) were seeded in a white plate and in a 96-well transparent plate, both treated with polylysine, and were incubated in Dulbecco's Modified Eagle Medium (DMEM-Glutamax™), with 10% of FBS, 1% Penicillin-Streptomycin (P/S), 1 mg/ml of Geneticin® (G418) and […] at 37° C. in at atmosphere with 5% CO2. After the incubation, the cells were incubated for 6 hours at 37° C. in at atmosphere with 5% CO2 with DMEM without serum. Then, this medium was removed and the cells were treated with different compounds at 0.1 mg/ml, 0.5 mg/ml, 1 mg/ml or 2 mg/mL in DMEM/1% FBS for 16-24 hours. As a positive control to activate the fibulin-5 and LOXL1 promoters 10 ng/ml of IL-1β were used and as a negative control untreated cells were used, just with DMEM/1% FBS. The incubations and treatments were carried out in parallel in the white plate and the transparent plate and in triplicate for each condition. After the treatment, the relative light units per second were determined (RLU/s) in the white plate by means of consecutive quantification of the activities of Firefly luciferase (fibulin-5 promoter) and Renilla luciferase (LOXL1 promoter), and the number of total cells/well in the transparent plate by means of staining with Crystal Violet (CV). To determine the Firefly and Renilla luciferase activities the Dual-Glo Luciferase Assay System kit by Promega was used. The cells were briefly lysed and the Firefly luciferase substrate was added. After incubating for 10 min at 25° C., the RLU/s were quantified by luminescence reader (Lumistar-BMG). Then the Firefly signal was extinguished and the Renilla luciferase substrate was added. After incubating for 5 min at 25° C., the RLU/s were quantified by the same luminescence reader. With regard to the determination of the total number of cells by Crystal Violet, the CV dyes the DNA of the cells and the quantity of dye taken by the cells can be measured in an absorbency reader at 630 nm (Multiskan Ascent). The color obtained is directly proportional to the total number of cells per well. The cells were briefly incubated with 0.05% CV plus 4% Formalin for 20 minutes and after several washes with Milli-Q water, the cells were left to dry for 1-2 hours and then 0.1 M of HCl was added for its immediate reading. The RLU/s of the luciferases corresponding to each promoter were normalized by the average of the total number of cells per condition. Three independent assays with 3 measurements per assay were carried out for Ac-L-Asp-L-Val-L-Lys-L-Tyr-OH at 0.1 mg/mL and 1 mg/mL. 1 assay with 3 measurements was carried out for the other compounds and concentrations.
(§3) The increase in the activity of the promoters with regard to the levels of expression of the negative control was determined.

[2] = system: human fibulin-5 gene promoter; assay: Luminescence assay of human fibulin-5 gene promoter activation (Firefly luciferase); type: cell-based; conditions: 16-24 hours
Experimental: as §1, §2, §3

Substance | Increase in the activity of the human promoter of the LOXL1 gene with regard to the negative control ([1]; 2 mg/mL) | Increase in the activity of the human promoter of the FIBULIN 5 gene with regard to the negative control ([2]; 2 mg/mL) | also measured
Ac-Asn-L-His-L-Lys(Ac-Asn-L-His)-4-Abz-NH2 |  |  | Increase in the activity of the human promoter of the LOXL1 gene with regard to the negative control ([1]; 0.5 mg/mL): 47%; Increase in the activity of the human promoter of the FIBULIN 5 gene with regard to the negative control ([2]; 0.5 mg/mL): 53%
Ac-Gly-L-Gln-L-Lys(Ac-Gly-L-Gln)-4-Abz-NH2 |  |  | Increase in the activity of the human promoter of the LOXL1 gene with regard to the negative control ([1]; 0.5 mg/mL): 79%; Increase in the activity of the human promoter of the FIBULIN 5 gene with regard to the negative control ([2]; 0.5 mg/mL): 17%
Ac-L-Asn-L-IIe-L-Dpr-L-Tyr-OH (Ac-NI[Dap]Y-OH; SMILES CC[C@H](C)[C@H](NC(=O)[C@H](CC(N)=O)NC(C)=O)C(=O)N[C@@H](CN)C(=O)N[C@@H](Cc1ccc(O)cc1)C(=O)O) | 8.75% | 41.79% | 
Ac-L-Asn-L-Ile-L-Lys-L-Tyr-OH (Ac-NIKY-OH) | 9.83% | 12.25% | 
Ac-L-Asn-L-Thr-L-Lys(Ac-L-Asn-L-Thr)-4-Abz-NH2 |  |  | Increase in the activity of the human promoter of the LOXL1 gene with regard to the negative control ([1]; 0.5 mg/mL): 51%; Increase in the activity of the human promoter of the FIBULIN 5 gene with regard to the negative control ([2]; 0.5 mg/mL): 39%
Ac-L-Asn-L-Val-L-Dpr-L-Tyr-OH (Ac-NV[Dap]Y-OH; SMILES CC(=O)N[C@@H](CC(N)=O)C(=O)N[C@H](C(=O)N[C@@H](CN)C(=O)N[C@@H](Cc1ccc(O)cc1)C(=O)O)C(C)C) | 3.99% | 35.49% | 
Ac-L-Asp-L-Met-L-Lys-L-Tyr-OH (Ac-DMKY-OH) | 32.85% | 14.36% | 
Ac-L-Asp-L-Val-L-Dbu-L-Tyr-OH (Ac-DV[Dbu]Y-OH) | 28.10% | 17.08% | 
Ac-L-Asp-L-Val-L-Lys-L-Tyr-NH(n-hexyl) (Ac-DVKY-NHHex; SMILES CCCCCCNC(=O)[C@H](Cc1ccc(O)cc1)NC(=O)[C@H](CCCCN)NC(=O)[C@@H](NC(=O)[C@H](CC(=O)O)NC(C)=O)C(C)C) | 7.54% | 18.11% | 
Ac-L-Asp-L-Val-L-Orn-L-Tyr-OH (Ac-DV[Orn]Y-OH; SMILES CC(=O)N[C@@H](CC(=O)O)C(=O)N[C@H](C(=O)N[C@@H](CCCN)C(=O)N[C@@H](Cc1ccc(O)cc1)C(=O)O)C(C)C) | 28.35% | 44.60% | 
Ac-L-Gln-L-Met-L-Lys-L-Tyr-OH (Ac-QMKY-OH) | 28.48% | 6.05% | 
Ac-L-Gln-L-Val-L-Lys-L-Trp-NH2 (Ac-QVKW-NH2) | 18.08% | 38.10% | 
Ac-L-Gln-L-Val-L-Lys-L-Tyr-OH (Ac-QVKY-OH) | 22.61% | 19.79% | 
Ac-L-Lys-L-Cit-L-Lys(Ac-L-Lys-L-Cit)-4-Abz-NH2 |  |  | Increase in the activity of the human promoter of the LOXL1 gene with regard to the negative control ([1]; 0.5 mg/mL): 22%; Increase in the activity of the human promoter of the FIBULIN 5 gene with regard to the negative control ([2]; 0.5 mg/mL): 21%
H-L-Asn-L-Leu-L-Lys-L-Tyr-OH (H-NLKY-OH) | 16.67% | 9.69% | 
H-L-Asp-L-Val-L-Lys-L-Tyr-OH (H-DVKY-OH) | 21.82% | 41.93% | 
H-L-Gln-L-Ile-L-Orn-L-Tyr-OH (H-QI[Orn]Y-OH; SMILES CC[C@H](C)[C@H](NC(=O)[C@@H](N)CCC(N)=O)C(=O)N[C@@H](CCCN)C(=O)N[C@@H](Cc1ccc(O)cc1)C(=O)O) | 47.99% | 4.41% | 
H-L-Gln-L-Val-L-Orn-L-Tyr-OH (H-QV[Orn]Y-OH; SMILES CC(C)[C@H](NC(=O)[C@@H](N)CCC(N)=O)C(=O)N[C@@H](CCCN)C(=O)N[C@@H](Cc1ccc(O)cc1)C(=O)O) | 25.84% | 7.04% | 
Palm-L-Asn-L-Ile-L-Orn-L-Trp-NH(n-hexyl) (Palmitoyl-NI[Orn]W-NHHex; SMILES CCCCCCCCCCCCCCCC(=O)N[C@@H](CC(N)=O)C(=O)N[C@H](C(=O)N[C@@H](CCCN)C(=O)N[C@@H](Cc1c[nH]c2ccccc12)C(=O)NCCCCCC)[C@@H](C)CC) |  |  | Increase in the activity of the human promoter of the LOXL1 gene with regard to the negative control ([1]; 1 mg/mL): 18.48%; Increase in the activity of the human promoter of the FIBULIN 5 gene with regard to the negative control ([2]; 1 mg/mL): 43.65%
Palm-L-Asp-L-Val-L-Lys-L-Tyr-OH (Palmitoyl-DVKY-OH; SMILES CCCCCCCCCCCCCCCC(=O)N[C@@H](CC(=O)O)C(=O)N[C@H](C(=O)N[C@@H](CCCCN)C(=O)N[C@@H](Cc1ccc(O)cc1)C(=O)O)C(C)C) | 25.17% | 32.47% | 

Continued, in another order:

Increase in the activity of the human promoter of the LOXL1 gene with regard to the negative control ([1]; 2 mg/mL) | Increase in the activity of the human promoter of the FIBULIN 5 gene with regard to the negative control ([2]; 2 mg/mL) | Substance | also measured
27.08% | 59.33% | Ac-L-Asp-L-Ile-L-Lys-L-Tyr-NH(n-hexadecyl) (Ac-DIKY-{NH(n-hexadecyl)}) | 
14.96% | 15.42% | Ac-L-Asp-L-Leu-L-Lys-L-Tyr-OH (Ac-DLKY-OH) | 
22.87% | 30.26% | Ac-L-Asp-L-Val-L-Lys-L-Tyr-NH2 (Ac-DVKY-NH2) | 
68.94% | 26.39% | Ac-L-Gln-L-Val-L-Dbu-L-Trp-NH2 (Ac-QV[Dbu]W-NH2) | 
22.22% | 10.92% | Ac-L-Glu-L-Val-L-Lys-L-Trp-OH (Ac-EVKW-OH) | 
5.59% | 27.45% | Ac-L-Glu-L-Val-L-Lys-L-Tyr-OH (Ac-EVKY-OH) | 
